Target: T1, CD73 activity in MDA-MB-231-GFP cells (Homo sapiens, UniProt P21589)
T1 construct: endogenous in cells; host or cells: MDA-MB-231-GFP cells
T1 sequence (P21589 27-549): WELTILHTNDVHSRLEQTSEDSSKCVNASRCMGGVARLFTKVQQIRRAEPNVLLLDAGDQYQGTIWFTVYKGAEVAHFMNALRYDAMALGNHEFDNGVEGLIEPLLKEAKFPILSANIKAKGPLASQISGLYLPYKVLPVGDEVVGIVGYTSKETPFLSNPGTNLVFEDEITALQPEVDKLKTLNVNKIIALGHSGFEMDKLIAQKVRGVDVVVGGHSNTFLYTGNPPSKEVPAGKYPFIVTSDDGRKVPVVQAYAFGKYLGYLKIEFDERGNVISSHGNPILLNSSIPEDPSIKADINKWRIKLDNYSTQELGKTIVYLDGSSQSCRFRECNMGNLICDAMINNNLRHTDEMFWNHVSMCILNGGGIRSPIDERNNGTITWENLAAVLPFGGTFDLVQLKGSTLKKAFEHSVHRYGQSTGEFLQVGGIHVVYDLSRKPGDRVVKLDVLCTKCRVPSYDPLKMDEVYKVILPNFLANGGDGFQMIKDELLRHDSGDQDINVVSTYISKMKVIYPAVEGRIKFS
Assay: MDA-MB-231 Cell Based CD73 Activity Assay (DMEM)
Details: 3000 cells per well, DMEM medium with 10% human plasma, overnight compound treatment, AMP 200 uM
Method: MDA-MB-231 Cell Based CD73 Activity Assay (DMEM) MDA-MB-231-GFP cells were seeded in 384-well plates (Greiner 781946) at a density of 3000 cells per well in 50 μL of DMEM medium with 10% HP (human plasma). Cells were plated into assay plate with compounds pre-spotted, for an overnight compound treatment. 50 uL of 400 uM AMP (final concentration will be 200 uM) was added using Bio-tek dispenser. Plates were incubated for 100 mins. […] The samples were analyzed using Rapid fire.

SMILES | EC50
N#Cc1ccc([C@H]2C[C@@H]2c2cc(-c3c[nH]c(=O)[nH]c3=O)nn3ccnc23)cc1OC(F)(F)F (racemic) [Example 413, 4-((2S,2S)-2-(6-(2,4-dioxo-1,2,3,4-tetrahydropyrimidin-5-yl)imidazo[1,2-b]pyridazin-8-yl)cyclopropyl)-2-(trifluoromethoxy)benzonitrile] | 34.6 nM
CC1CN(C(=O)c2ccc([C@H]3C[C@@H]3c3cc(-c4c[nH]c(=O)[nH]c4=O)nn4ccnc34)cc2)C1 (racemic) [Example 290, 5-(8-((2S,2S)-2-(4-(3-methylazetidine-1-carbonyl)phenyl)cyclopropyl)imidazo[1,2-b]pyridazin-6-yl)pyrimidine-2,4(1H,3H)-dione] | 9.64 nM
O=C(c1ccc([C@H]2C[C@@H]2c2cc(-c3c[nH]c(=O)[nH]c3=O)nn3c(F)cnc23)cc1)N1CC(F)(F)C1 (single isomer, unassigned) [Example 313] | 9.78 nM
O=c1[nH]cc(-c2cc([C@H]3C[C@@H]3c3cc4c(ccn4CC(F)(F)F)cn3)c3nccn3n2)c(=O)[nH]1 (racemic) [Example 127, 5-(8-((2S,2S)-2-(1-(2,2,2-trifluoroethyl)-1H-pyrrolo[3,2-c]pyridin-6-yl)cyclopropyl)imidazo[1,2-b]pyridazin-6-yl)pyrimidine-2,4(1H,3H)-dione] | 0.17 nM
O=c1[nH]cc(-c2cc([C@H]3C[C@@H]3c3ccc4ncccc4c3)c3nccn3n2)c(=O)[nH]1 (racemic) [Example 157, 5-(8-((2S,2S)-2-(quinolin-6-yl)cyclopropyl)imidazo[1,2-b]pyridazin-6-yl)pyrimidine-2,4(1H,3H)-dione] | 2.81 nM
O=c1[nH]cc(-c2cc([C@H]3C[C@@H]3c3ccccn3)c3ncc(F)n3n2)c(=O)[nH]1 (racemic) [Example 178, 5-(3-fluoro-8-((1S,2S)-2-(pyridin-2-yl)cyclopropyl)imidazo[1,2-b]pyridazin-6-yl)pyrimidine-2,4(1H,3H)-dione] | 4.35 nM
CC1(C)C(=O)N(CC(F)(F)F)c2cc([C@H]3C[C@@H]3c3cc(-c4c[nH]c(=O)[nH]c4=O)nn4c(Cl)cnc34)ccc21 (racemic) [Example 212, 5-[3-chloro-8-[(1S,2S)-2-[3,3-dimethyl-2-oxo-1-(2,2,2-trifluoroethyl)indolin-6-yl]cyclopropyl]imidazo[1,2-b]pyridazin-6-yl]-1H-pyrimidine-2,4-dione] | 0.72 nM
O=c1[nH]cc(-c2cc([C@H]3C[C@@H]3c3ccn(C(F)F)n3)c3nccn3n2)c(=O)[nH]1 (racemic) [Example 369, 5-(8-((1S,2S)-2-(1-(difluoromethyl)-1H-pyrazol-3-yl)cyclopropyl)imidazo[1,2-b]pyridazin-6-yl)pyrimidine-2,4(1H,3H)-dione] | 27.5 nM
N#Cc1ccc(F)c([C@H]2C[C@@H]2c2cc(-c3c[nH]c(=O)[nH]c3=O)nn3ccnc23)c1 (racemic) [Example 466, 3-((2S,2S)-2-(6-(2,4-dioxo-1,2,3,4-tetrahydropyrimidin-5-yl)imidazo[1,2-b]pyridazin-8-yl)cyclopropyl)-4-fluorobenzonitrile] | 20 nM
COC(=O)c1cccc([C@H]2C[C@@H]2c2cc(-c3c[nH]c(=O)[nH]c3=O)nn3ccnc23)c1 (racemic) [Example 282, methyl 3-((2S,2S)-2-(6-(2,4-dioxo-1,2,3,4-tetrahydropyrimidin-5-yl)imidazo[1,2-b]pyridazin-8-yl)cyclopropyl)benzoate] | 11.7 nM
O=c1[nH]cc(-c2cc([C@H]3C[C@@H]3c3ccnc4ccccc34)c3nccn3n2)c(=O)[nH]1 (racemic) [Example 167, 5-(8-((1S,2S)-2-(quinolin-4-yl)cyclopropyl)imidazo[1,2-b]pyridazin-6-yl)pyrimidine-2,4(1H,3H)-dione] | 152 nM
O=c1[nH]cc(-c2cc([C@H]3C[C@@H]3c3cc(OCC(F)(F)F)c4ncccc4c3)c3nccn3n2)c(=O)[nH]1 (racemic) [Example 732, 5-(8-((2S,2S)-2-(8-(2,2,2-trifluoroethoxy)quinolin-6-yl)cyclopropyl)imidazo[1,2-b]pyridazin-6-yl)pyrimidine-2,4(1H,3H)-dione] | 2.52 nM
O=c1[nH]cc(-c2cc([C@H]3C[C@@H]3c3ccc4cnn(CC5CC5(F)F)c4c3)c3nccn3n2)c(=O)[nH]1 (mixture of isomers) [Example 118, 5-(8-((2S,2S)-2-(1-((2,2-difluorocyclopropyl)methyl)-1H-indazol-6-yl)cyclopropyl)imidazo[1,2-b]pyridazin-6-yl)pyrimidine-2,4(1H,3H)-dione] | 0.1 nM
O=c1[nH]cc(-c2cc(N3C[C@H]4CC[C@@H]3C4)c3nccn3n2)c(=O)[nH]1 [Example 642, 5-(8-((1R,4S)-2-azabicyclo[2.2.1]heptan-2-yl)imidazo[1,2-b]pyridazin-6-yl)pyrimidine-2,4(1H,3H)-dione] | 154 nM
O=c1[nH]cc(-c2cc([C@H]3C[C@@H]3c3ccccc3OC(F)(F)F)c3nccn3n2)c(=O)[nH]1 (racemic) [Example 309, 5-(8-((1S,2S)-2-(2-(trifluoromethoxy)phenyl)cyclopropyl)imidazo[1,2-b]pyridazin-6-yl)pyrimidine-2,4(1H,3H)-dione] | 208 nM
CC1(C)CN(C(=O)c2cccc([C@H]3C[C@@H]3c3cc(-c4c[nH]c(=O)[nH]c4=O)nn4ccnc34)c2)C1 (racemic) [Example 298, 5-(8-((2S,2S)-2-(3-(3,3-dimethylazetidine-1-carbonyl)phenyl)cyclopropyl)imidazo[1,2-b]pyridazin-6-yl)pyrimidine-2,4(1H,3H)-dione] | 2.81 nM
O=C(c1cccc([C@H]2C[C@@H]2c2cc(-c3c[nH]c(=O)[nH]c3=O)nn3ccnc23)c1)N1C[C@@H](F)[C@H](F)C1 (racemic) [Example 300, 5-(8-((2S,2S)-2-(3-((3R,4R)-3,4-difluoropyrrolidine-1-carbonyl)phenyl)cyclopropyl)imidazo[1,2-b]pyridazin-6-yl)pyrimidine-2,4(1H,3H)-dione] | 1.34 nM
O=c1[nH]cc(-c2cc([C@H]3C[C@@H]3c3ccc(OC(F)(F)F)nc3)c3nccn3n2)c(=O)[nH]1 (racemic) [Example 376, 5-(8-((2S,2S)-2-(6-(trifluoromethoxy)pyridin-3-yl)cyclopropyl)imidazo[1,2-b]pyridazin-6-yl)pyrimidine-2,4(1H,3H)-dione] | 19.3 nM
O=c1[nH]cc(-c2cc([C@H]3C[C@@H]3c3ccc4c(C5CC5)nn(CC(F)(F)F)c4c3)c3nccn3n2)c(=O)[nH]1 (racemic) [Example 128, 5-(8-((2S,2S)-2-(3-cyclopropyl-1-(2,2,2-trifluoroethyl)-1H-indazol-6-yl)cyclopropyl)imidazo[1,2-b]pyridazin-6-yl)pyrimidine-2,4(1H,3H)-dione] | 0.4 nM
O=C(c1ccc([C@H]2C[C@@H]2c2cc(-c3c[nH]c(=O)[nH]c3=O)nn3ccnc23)cc1)N1CCC1 (racemic) [Example 289, 5-(8-((2S,2S)-2-(4-(azetidine-1-carbonyl)phenyl)cyclopropyl)imidazo[1,2-b]pyridazin-6-yl)pyrimidine-2,4(1H,3H)-dione] | 7.24 nM
O=c1[nH]cc(-c2cc([C@H]3C[C@@H]3c3cnn(C(F)(F)F)c3)c3nccn3n2)c(=O)[nH]1 (racemic) [Example 366, 5-(8-((1S,2S)-2-(1-(trifluoromethyl)-1H-pyrazol-4-yl)cyclopropyl)imidazo[1,2-b]pyridazin-6-yl)pyrimidine-2,4(1H,3H)-dione] | 16.4 nM

Reference: patent publication US12110294B2, “CD73 compounds” (Gilead Sciences, Inc., priority 2020, dated 2024)
